Data published in ChEMBL document CHEMBL1165922, “Vitamin D receptor agonist/histone deacetylase inhibitor molecular hybrids” (Bioorg Med Chem, 2010).
Values belong to the molecule of their own block, whether it stands above or below them. Activity calls are given as the source filed them. The rule behind the calls is not given here.

Experiments:
Vitamin D3 receptor = molecular target: T1, Vitamin D3 receptor (Homo sapiens, UniProt P11473)
T1 sequence (P11473 whole entry): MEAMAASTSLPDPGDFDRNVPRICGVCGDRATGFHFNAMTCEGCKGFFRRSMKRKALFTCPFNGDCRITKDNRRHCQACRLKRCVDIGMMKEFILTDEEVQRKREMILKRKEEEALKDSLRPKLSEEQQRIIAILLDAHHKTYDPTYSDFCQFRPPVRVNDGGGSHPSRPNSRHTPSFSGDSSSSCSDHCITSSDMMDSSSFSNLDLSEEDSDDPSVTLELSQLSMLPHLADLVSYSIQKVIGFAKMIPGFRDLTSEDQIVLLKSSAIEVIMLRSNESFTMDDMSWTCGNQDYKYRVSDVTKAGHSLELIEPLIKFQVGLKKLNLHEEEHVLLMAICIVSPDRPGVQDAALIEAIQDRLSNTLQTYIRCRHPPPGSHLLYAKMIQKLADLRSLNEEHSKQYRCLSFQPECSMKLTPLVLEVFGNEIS
Description: Binding affinity to VDR ligand binding domain by fluorescence polarization competition assay

[1] = molecular target: T2, Protein deacetylase HDAC6 (Homo sapiens, UniProt Q9UBN7); assay: Inhibition of HDAC6 after 10 mins by fluorometric assay
T2 sequence (Q9UBN7 whole entry): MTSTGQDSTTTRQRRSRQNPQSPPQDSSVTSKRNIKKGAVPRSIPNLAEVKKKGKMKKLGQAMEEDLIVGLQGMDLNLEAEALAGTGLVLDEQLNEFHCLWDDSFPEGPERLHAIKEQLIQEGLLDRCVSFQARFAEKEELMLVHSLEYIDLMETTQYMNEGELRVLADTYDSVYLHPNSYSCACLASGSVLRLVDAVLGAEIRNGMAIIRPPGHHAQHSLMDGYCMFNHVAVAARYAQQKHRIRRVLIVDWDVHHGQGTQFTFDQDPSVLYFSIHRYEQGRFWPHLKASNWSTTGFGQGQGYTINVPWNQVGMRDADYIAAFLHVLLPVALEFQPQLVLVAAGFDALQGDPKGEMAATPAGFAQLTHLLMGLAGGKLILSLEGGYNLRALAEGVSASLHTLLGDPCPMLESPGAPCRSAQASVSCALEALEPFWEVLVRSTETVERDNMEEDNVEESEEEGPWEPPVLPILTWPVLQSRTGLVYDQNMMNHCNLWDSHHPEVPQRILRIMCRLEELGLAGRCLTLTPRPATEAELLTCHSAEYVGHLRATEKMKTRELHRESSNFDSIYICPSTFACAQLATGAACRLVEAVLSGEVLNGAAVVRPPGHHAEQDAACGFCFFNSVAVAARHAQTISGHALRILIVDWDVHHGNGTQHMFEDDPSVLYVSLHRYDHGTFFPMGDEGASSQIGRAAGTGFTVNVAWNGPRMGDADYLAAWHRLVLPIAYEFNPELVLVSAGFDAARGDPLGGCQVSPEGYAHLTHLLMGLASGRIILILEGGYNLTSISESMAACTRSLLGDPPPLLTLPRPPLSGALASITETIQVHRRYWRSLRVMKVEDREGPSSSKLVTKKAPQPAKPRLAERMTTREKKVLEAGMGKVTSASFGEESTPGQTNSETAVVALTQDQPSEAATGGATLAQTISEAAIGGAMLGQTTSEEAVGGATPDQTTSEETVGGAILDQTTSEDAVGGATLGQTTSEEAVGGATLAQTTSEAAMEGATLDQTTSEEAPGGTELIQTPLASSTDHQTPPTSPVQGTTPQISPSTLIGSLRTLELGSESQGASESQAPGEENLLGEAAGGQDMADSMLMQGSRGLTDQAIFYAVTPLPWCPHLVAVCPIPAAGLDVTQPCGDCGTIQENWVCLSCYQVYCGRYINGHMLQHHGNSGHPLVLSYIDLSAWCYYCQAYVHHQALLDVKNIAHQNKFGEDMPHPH

Histone deacetylase 3 = Histone deacetylase 3 (Homo sapiens, UniProt O15379); assay: Inhibition of HDAC3 after 10 mins by fluorometric assay
Histone deacetylase 3, sequence (O15379 whole entry): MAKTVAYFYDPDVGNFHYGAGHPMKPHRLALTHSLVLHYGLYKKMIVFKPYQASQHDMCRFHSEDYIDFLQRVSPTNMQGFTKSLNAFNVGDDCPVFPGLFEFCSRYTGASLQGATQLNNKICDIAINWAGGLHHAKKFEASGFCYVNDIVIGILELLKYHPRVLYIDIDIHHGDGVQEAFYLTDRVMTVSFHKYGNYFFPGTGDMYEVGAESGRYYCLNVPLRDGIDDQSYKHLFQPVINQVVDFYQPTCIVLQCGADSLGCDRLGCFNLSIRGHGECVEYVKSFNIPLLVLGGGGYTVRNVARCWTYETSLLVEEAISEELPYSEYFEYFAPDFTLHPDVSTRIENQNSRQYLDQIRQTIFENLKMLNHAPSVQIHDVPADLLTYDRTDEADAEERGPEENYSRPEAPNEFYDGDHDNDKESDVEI

Mus musculus [2] = assay: Toxicity in FVB mouse assessed as calcium level in blood at 12 pmol/day administered via osmotic pump for 6 to 7 days measured on day 4 by microchemistry (RVb = 2.11 mmol/L); type: organism-based; conditions: in vivo, other
Mus musculus [3] = assay: Toxicity in FVB mouse assessed as calcium level in blood at 24 pmol/day administered via osmotic pump for 6 to 7 days measured on day 4 by microchemistry (RVb = 2.11 mmol/L); type: organism-based; conditions: in vivo, other
Mus musculus [4] = assay: Toxicity in FVB mouse assessed as calcium level in blood at 12 pmol/day administered via osmotic pump for 6 to 7 days measured on day 3 by microchemistry (RVb = 2.24 mmol/L); type: organism-based; conditions: in vivo, other
Mus musculus [5] = assay: Toxicity in FVB mouse assessed as calcium level in blood at 12 pmol/day administered via osmotic pump for 6 to 7 days measured on day 6 by microchemistry (RVb = 2 mmol/L); type: organism-based; conditions: in vivo, other
Mus musculus [6] = assay: Toxicity in FVB mouse assessed as calcium level in blood at 24 pmol/day administered via osmotic pump for 6 to 7 days measured on day 7 by microchemistry (RVb = […] mmol/L); type: organism-based; conditions: in vivo, other
Mus musculus [7] = assay: Toxicity in FVB mouse assessed as calcium level in blood at 24 pmol/day administered via osmotic pump for 6 to 7 days measured on day 3 by microchemistry (RVb = 2.24 mmol/L); type: organism-based; conditions: in vivo, other
Mus musculus [8] = assay: Toxicity in FVB mouse assessed as calcium level in blood at 48 pmol/day administered via osmotic pump for 6 to 7 days measured on day 6 by microchemistry (RVb = 2 mmol/L); type: organism-based; conditions: in vivo, other
Mus musculus [9] = assay: Toxicity in FVB mouse assessed as calcium level in blood at 48 pmol/day administered via osmotic pump for 6 to 7 days measured on day 3 by microchemistry (RVb = 2.24 mmol/L); type: organism-based; conditions: in vivo, other
Mus musculus [10] = assay: Toxicity in FVB mouse assessed as calcium level in blood at 24 pmol/day administered via osmotic pump for 6 to 7 days measured on day 6 by microchemistry (RVb = 2 mmol/L); type: organism-based; conditions: in vivo, other
Mus musculus [11] = assay: Toxicity in FVB mouse assessed as calcium level in blood at 12 pmol/day administered via osmotic pump for 6 to 7 days measured on day 7 by microchemistry (RVb = […] mmol/L); type: organism-based; conditions: in vivo, other
Mus musculus [12] = assay: Toxicity in FVB mouse assessed as calcium level in blood at 1200 pmol/day administered via osmotic pump for 6 to 7 days measured on day 3 by microchemistry (RVb = 2.24 mmol/L); type: organism-based; conditions: in vivo, other
Mus musculus [13] = assay: Toxicity in FVB mouse assessed as calcium level in blood at 240 pmol/day administered via osmotic pump for 6 to 7 days measured on day 6 by microchemistry (RVb = 2 mmol/L); type: organism-based; conditions: in vivo, other
Histone deacetylase 2 = Histone deacetylase 2 (Homo sapiens, UniProt Q92769); assay: Inhibition of HDAC2 after 10 mins by fluorometric assay
Histone deacetylase 2, sequence (Q92769 whole entry): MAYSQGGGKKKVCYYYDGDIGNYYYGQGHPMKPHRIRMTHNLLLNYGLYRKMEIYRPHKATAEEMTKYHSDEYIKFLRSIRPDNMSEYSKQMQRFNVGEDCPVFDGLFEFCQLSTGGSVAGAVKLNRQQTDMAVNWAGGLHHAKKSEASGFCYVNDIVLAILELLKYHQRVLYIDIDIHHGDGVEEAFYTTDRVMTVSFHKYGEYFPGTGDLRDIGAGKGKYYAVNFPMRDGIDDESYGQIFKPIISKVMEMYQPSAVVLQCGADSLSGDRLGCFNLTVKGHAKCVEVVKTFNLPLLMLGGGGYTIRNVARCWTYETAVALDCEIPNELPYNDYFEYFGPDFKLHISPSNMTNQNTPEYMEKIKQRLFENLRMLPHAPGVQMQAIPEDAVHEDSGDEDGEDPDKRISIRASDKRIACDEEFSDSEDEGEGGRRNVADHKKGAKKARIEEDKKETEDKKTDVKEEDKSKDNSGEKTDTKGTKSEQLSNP

Mus musculus [14] = assay: Toxicity in FVB mouse assessed as calcium level in blood at 1200 pmol/day administered via osmotic pump for 6 to 7 days measured on day 6 by microchemistry (RVb = 2 mmol/L); type: organism-based; conditions: in vivo, other
Mus musculus [15] = assay: Toxicity in FVB mouse assessed as calcium level in blood at 240 pmol/day administered via osmotic pump for 6 to 7 days measured on day 3 by microchemistry (RVb = 2.24 mmol/L); type: organism-based; conditions: in vivo, other
AT84 = assay: Antiproliferative activity against mouse AT84 cells at 100 to 500 nM after 48 hrs by EdU incorporation assay; type: functional, cell-based
Mus musculus [16] = assay: Toxicity in FVB mouse assessed as calcium level in blood at 1200 pmol/day administered via osmotic pump for 6 to 7 days measured on day 4 by microchemistry (RVb = 2.11 mmol/L); type: organism-based; conditions: in vivo, other
Mus musculus [17] = assay: Toxicity in FVB mouse assessed as calcium level in blood at 240 pmol/day administered via osmotic pump for 6 to 7 days measured on day 7 by microchemistry (RVb = […] mmol/L); type: organism-based; conditions: in vivo, other
Mus musculus [18] = assay: Toxicity in FVB mouse assessed as calcium level in blood at 1200 pmol/day administered via osmotic pump for 6 to 7 days measured on day 7 by microchemistry (RVb = […] mmol/L); type: organism-based; conditions: in vivo, other
Mus musculus [19] = assay: Toxicity in FVB mouse assessed as calcium level in blood at 240 pmol/day administered via osmotic pump for 6 to 7 days measured on day 4 by microchemistry (RVb = 2.11 mmol/L); type: organism-based; conditions: in vivo, other

IC50 (Vitamin D3 receptor): 0.014 µM | IC50 [1]: 153 µM | IC50 (Histone deacetylase 3): 695 µM
Compound: C[C@H](CCCCNS(=O)(=O)C(F)(F)F)[C@H]1CC[C@H]2/C(=C/C=C3C[C@@H](O)C[C@H](O)C3)CCC[C@]12C

Compound: C=C1/C(=C\C=C2/CCC[C@]3(C)[C@@H]([C@H](C)CCCC(C)(C)O)CC[C@@H]23)C[C@@H](O)C[C@@H]1O [CALCITRIOL]
Activity (Mus musculus [2]): 2.59 mmol/L | Activity (Mus musculus [3]): 2.97 mmol/L | Activity (Mus musculus [4]): 2.05 mmol/L | Activity (Mus musculus [5]): 2.03 mmol/L | Activity (Mus musculus [6]): 3.21 mmol/L | Activity (Mus musculus [7]): 3.15 mmol/L | Activity (Mus musculus [8]): Toxic | Activity (Mus musculus [9]): 3.07 mmol/L | Activity (Mus musculus [10]): 4.43 mmol/L | Activity (Mus musculus [11]): 2.62 mmol/L

IC50 (Vitamin D3 receptor): 0.087 µM | IC50 (Histone deacetylase 2): 10.4 µM | IC50 [1]: 0.58 µM | IC50 (Histone deacetylase 3): 13.3 µM
Compound: CC(/C=C/C(=O)NO)=C\[C@@H](C)[C@H]1CC[C@H]2/C(=C/C=C3\C[C@@H](O)C[C@@H](O)C3)CCC[C@]12C [TRICIFEROL]
Activity (Mus musculus [12]): 1.92 mmol/L | Activity (Mus musculus [13]): 2.03 mmol/L | Activity (Mus musculus [14]): 2.08 mmol/L | Activity (Mus musculus [15]): 2.11 mmol/L

IC50 (Histone deacetylase 2): 90.4 µM | IC50 [1]: 64 µM | IC50 (Histone deacetylase 3): 36 µM
Compound: CNC(=O)C(=O)CCCC[C@@H](C)[C@H]1CC[C@H]2/C(=C/C=C3C[C@@H](O)C[C@H](O)C3)CCC[C@]12C
Activity (AT84): Active

IC50 (Vitamin D3 receptor): 0.015 µM | IC50 [1]: 293 µM | IC50 (Histone deacetylase 3): 508 µM
Compound: C[C@H](CCCCNS(=O)(=O)c1ccccc1)[C@H]1CC[C@H]2/C(=C/C=C3C[C@@H](O)C[C@H](O)C3)CCC[C@]12C
Activity (Mus musculus [16]): 2.03 mmol/L | Activity (Mus musculus [17]): 1.95 mmol/L | Activity (Mus musculus [18]): 2.07 mmol/L | Activity (Mus musculus [19]): 2.05 mmol/L

IC50 (Vitamin D3 receptor): 0.029 µM | IC50 [1]: 101 µM | IC50 (Histone deacetylase 3): 725 µM
Compound: CCCCS(=O)(=O)NCCCC[C@@H](C)[C@H]1CC[C@H]2/C(=C/C=C3C[C@@H](O)C[C@H](O)C3)CCC[C@]12C
Activity (Mus musculus [16]): 2.12 mmol/L | Activity (Mus musculus [17]): 2.05 mmol/L | Activity (Mus musculus [18]): 1.99 mmol/L | Activity (Mus musculus [19]): 1.99 mmol/L

IC50 (Vitamin D3 receptor): 0.213 µM | IC50 [1]: 71.3 µM | IC50 (Histone deacetylase 3): 730 µM
Compound: C[C@H](CCCNS(C)(=O)=O)[C@H]1CC[C@H]2/C(=C/C=C3C[C@@H](O)C[C@H](O)C3)CCC[C@]12C
